Assay results taken from US20030013660A1, “Dioxolane analogs for improved inter-cellular delivery” (Shire BioChem Inc., priority 2000, published 2003).
Values joined by “and” are separate entries in the source; they are usually repeats but may differ in a detail not shown here. Identical values can stand only once. Like-named read-outs stand apart in the source and are kept apart here.

Experiments:
[1] = tested on: CCRF-CEM; assay: 3H-TdR incorporation at 72 hr (24 hr drug exposure, wash, 48 hr); assay type: cell-based; details: read-out: IC50 in μM (3H-TdR incorporation at 72 hr) CCRF-CEM 24 h, CCRF-CEM T-cell Leukemia, 72 hr assay
Procedure: (§1) Exposition of 24 hr to drug, wash, incubated for another 48 hr (total of 72 hr assay)
(§2) (3H-Thymidine Incorporation Assay)

[2] = tested on: CEM/dCK-; assay: as above; assay type: cell-based; details: for IC50: 24 h drug exposure, 72 hr assay; for Factor* (Resistance Factor = Ratio of dCK- on Wild-type CCRF-CEM): ratio of IC50 CEM/dCK- to IC50 CCRF-CEM
Procedure: as §1, §2

[3] = tested on: SF-268; assay: as above; assay type: cell-based, Human; details: 24 h drug exposure, 72 hr assay
Procedure: as §1, §2

[4] = tested on: MCF-7; assay: as above; assay type: cell-based, Human
Procedure: as §1, §2

[5] = tested on: H-460; assay: as above; assay type: cell-based, Human
Procedure: as §1, §2

[6] = tested on: CCRF-CEM; assay: 3H-TdR (3H-thymidine) incorporation assay at 72 hr; assay type: cell-based; details: 3H-TdR incorporation at 72 hr
Procedure: (§3) Table of IC50 Values (μM) for Controls
as §1, §2

[7] = tested on: CEM/dCK-; assay: 3H-TdR (3H-thymidine) incorporation assay at 72 hr; assay type: cell-based; details: Homo sapiens, CCRF-CEM, read-out: IC50 CEM/dCK- 24 h, 24 h drug exposure, wash, another 48 hr; deoxycytidine kinase-deficient CCRF-CEM
Procedure: as §3, §1, §2

[8] = tested on: H-460; assay: 3H-TdR (3H-thymidine) incorporation assay at 72 hr; assay type: cell-based, Human; details: 3H-TdR incorporation at 72 hr
[9] = Homo sapiens, CCRF-CEM, read-out: IC50 in μM (3H-TdR incorporation at 72 hr) CEM/dCK- 24 h, CCRF-CEM deoxycytidine kinase-deficient
[10] = Homo sapiens, SF-268, read-out: IC50 in μM (3H-TdR incorporation at 72 hr) SF-268 24 h, SF-268 Human Central Nervous System Tumor
[11] = Homo sapiens, MCF7, read-out: IC50 in μM (3H-TdR incorporation at 72 hr) MCF-7 24 h, MCF-7 Human Breast Carcinoma, 72 hr assay
[12] = Homo sapiens, NCI-H460, read-out: IC50 in μM (3H-TdR incorporation at 72 hr) H-460 24 h, H-460 Human Lung Carcinoma, 72 hr assay
[13] = read-out: IC50 in μM (3H-TdR incorporation at 72 hr) SF-268 24 h, SF-268 Human Central Nervous System Tumor
[14] = read-out: IC50 in μM (3H-TdR incorporation at 72 hr) MCF-7 24 h, MCF-7 Human Breast Carcinoma, 72 hr assay
[15] = read-out: IC50 in μM (3H-TdR incorporation at 72 hr) H-460 24 h, H-460 Human Lung Carcinoma, 72 hr assay
[16] = read-out: IC50 in μM (3H-TdR incorporation at 72 hr) CEM/dCK- 24 h, CCRF-CEM deoxycytidine kinase-deficient

Compound	IC50 ([1]; Homo sapiens, CCRF-CEM) [µM]	IC50 [2, 9] [µM]	IC50 [3, 10] [µM]	IC50 [4, 11] [µM]	IC50 [5, 12] [µM]	IC50 [1]	further results
O=c1nc(NS(=O)(=O)c2ccc([N+](=O)[O-])cc2)ccn1[C@@H]1CO[C@H](CO)O1 [Compound 168, N-[1-(2-HYDROXYMETHYL- [1,3]DIOXOLAN-4-YL)-2- OXO-1,2-DIHYDRO- PYRIMIDIN-4-YL]-4- NITRO- BENZENESULFONAMIDE]	31	> 100				22 µM and 20 µM	
O=c1nc(NCNc2ccccc2)ccn1[C@@H]1CO[C@H](CO)O1 [Compound 172, 1-(2-HYDROXYMETHYL- [1,3]DIOXOLAN-4-YL)-4- (PHENYLAMINOMETHYL- AMINO)-1H-PYRIMIDIN-2- ONE]	0.0074			0.019	0.014	0.0085 µM	IC50 [4, 14]: 0.036 µM; IC50 [5, 15]: 0.015 µM
Nc1ccn([C@@H]2CO[C@H](COC(=O)c3ccc(Cl)c(Cl)c3)O2)c(=O)n1 [Compound 187, 3,4-DICHLORO-BENZOIC ACID 4-(4-AMINO-2-OXO- 2H-PYRIMIDIN-1-YL)- [1,3]DIOXOLAN-2-YL METHYL ESTER]						0.0017 µM	IC50 [4, 14]: 0.0042 µM; IC50 [5, 15]: 0.0014 µM
CC(C)(C)C(=O)Oc1ccc(COC(=O)Nc2ccn([C@@H]3CO[C@H](COC(=O)OCc4ccc(OC(=O)C(C)(C)C)cc4)O3)c(=O)n2)cc1 [Compound 212, 2,2-Dimethylpropionic Acid 4-(1-{2-[4-(2,2-dimethylpropionyloxy)benzyloxy Carbonyloxymethyl]-[1,3]dioxolan-4-yl}-2-oxo-1,2-dihydropyrimidin-4-ylcarbamoyloxymethyl)-phenyl Ester]		3.5	0.018	0.00059	0.00011		
CC(C)(C)OC(=O)N(CCCCCCNC(=O)OC[C@H]1OC[C@@H](n2ccc(N)nc2=O)O1)Cc1ccccc1 [Compound 214, {6-[4-(4-AMINO-2-OXO- 2H-PYRIMIDIN-1-YL)- [1,3]DIOXOLAN-2- YLMETHOXYCARBONYLAMINO]-HEXYL}-BENZYL-CARBAMIC ACID TERT-BUTYL ESTER]		> 100	89	9.4	9.4		
Nc1ccn([C@@H]2CO[C@H](COC(=O)NCCCc3ccccc3)O2)c(=O)n1 [Compound 215, (3-PHENYL-PROPYL)- CARBAMIC ACID 4-(4- AMINO-2-OXO-2H- PYRIMIDIN-1-YL)- [1,3]DIOXOLAN-2-YL METHYL ESTER]		> 100	96	33	3.9		
O=C(Nc1ccn([C@@H]2CO[C@H](CO)O2)c(=O)n1)C1(c2ccccc2)CCCC1 [Compound 229, 1-PHENYL- CYCLOPENTANECARBOXYLIC ACID [1-(2- HYDROXYMETHYL- [1,3]DIOXOLAN-4-YL)-2- OXO-1,2-DIHYDRO- PYRIMIDIN-4-YL]-AMIDE]	11	> 100		15	13		Factor* (Resistance Factor = Ratio of dCK- on Wild-type CCRF-CEM) [2]: >9; IC50 [4, 14]: 18 µM; IC50 [5, 15]: 14 µM
CCC(CC)(CCCCCCc1ccccc1)C(=O)OC[C@H]1OC[C@@H](n2ccc(N)nc2=O)O1 [Compound 233, 2,2-DIETHYL-8-PHENYL- OCTANOIC ACID 4-(4- AMINO-2-OXO-2H- PYRIMIDIN-1-YL)- [1,3]DIOXOLAN-2-YL METHYL ESTER]	11	18	12	13		9.7 µM	IC50 [2, 16]: 22 µM; IC50 [3, 13]: 17 µM and 15 µM; IC50 [4, 14]: 9.6 µM and 11 µM

Further lines, with some results ahead:

IC50 ([1]; Homo sapiens, CCRF-CEM) [µM]	IC50 [2, 9] [µM]	IC50 [3, 10] [µM]	IC50 [4, 11] [µM]	IC50 [5, 12] [µM]	IC50 [1]	Compound	further results
0.13	> 100	1.6	0.39	0.43		CCCCN(/C=N/c1ccn([C@@H]2CO[C@H](CO)O2)c(=O)n1)CCCC (stereo in doubt) [Compound 221, N,N-Dibutyl-N′-[1-(2-hydroxymethyl [1,3]dioxolan-4-yl)-2-oxo-1,2-dihydro-pyrimidin-4-yl]-formamidine]	Factor* (Resistance Factor = Ratio of dCK- on Wild-type CCRF-CEM) [2]: >769
0.076	> 100	1.1				O=C(Nc1ccn([C@@H]2CO[C@H](CO)O2)c(=O)n1)C12C[C@@H]3C[C@@H](C[C@@H]1C3)C2 (stereo in doubt) [Compound 231, Hexahydro-2,5-Methano-Pentalene-3A-Carboxylic Acid [1-(2-Hydroxymethyl-[1,3]Dioxolan-4-Yl)-2-Oxo-1,2-Dihydro-Pyrimidin-4-Yl]-Amide]	
3.3	> 100	12	5.7		4.1 µM	Cc1cccc(C)c1C(=O)OC[C@H]1OC[C@@H](n2ccc(N)nc2=O)O1 [Compound 162, 1-[2-(2,6-DIMETHYL- BENZOYLOXYMETHYL)- [1,3]DIOXOLAN-4-YL]-2- OXO-1,2-DIHYDRO PYRIMIDIN-4-YL- AMMONIUM; CHLORIDE]	IC50 ([6]; Homo sapiens, CCRF-CEM, read-out: IC50 CCRF-CEM 24 h, 24 h drug exposure, wash, another 48 hr): 2200 nM; IC50 ([6]; read-out: IC50 CCRF-CEM 24 h, 24 h drug exposure, wash, another 48 hr): 2800 nM; IC50 [7]: > 100000 nM; IC50 ([8]; Homo sapiens, NCI-H460, read-out: IC50 H-460 24 h, 24 h drug exposure, wash, another 48 hr): 8400 nM; IC50 ([8]; read-out: IC50 H-460 24 h, 24 h drug exposure, wash, another 48 hr): 6400 nM; IC50 [3, 13]: 17 µM; IC50 [4, 14]: 3.6 µM
0.014	38	0.057		0.04	0.011 µM	COc1ccc(C(=O)OC[C@H]2OC[C@@H](n3ccc(N)nc3=O)O2)cc1 [Compound 176, 4-METHOXY-BENZOIC ACID 4-(4-AMINO-2-OXO-2H- PYRIMIDIN-1-YL)- [1,3]DIOXOLAN-2- YLMETHYL ESTER]	IC50 [2, 16]: 68 µM; IC50 [3, 13]: 0.032 µM; IC50 [5, 15]: 0.043 µM
< 0.0001		< 0.0001	< 0.0001	< 0.0001		CCCCCCc1ccc(C(=O)OC[C@H]2OC[C@@H](n3ccc(N)nc3=O)O2)cc1 [Compound 191, 4-HEXYL-BENZOIC ACID 4- (4-AMINO-2-OXO-2H- PYRIMIDIN-1-YL)- [1,3]DIOXOLAN-2-YL METHYL ESTER]	
< 0.0001		< 0.0001	< 0.0001	< 0.0001		O=C(CCCCCCCc1ccccc1)Nc1ccn([C@@H]2CO[C@H](CO)O2)c(=O)n1 [Compound 197, 8-PHENYL-OCTANOIC ACID [1-(2-HYDROXYMETHYL- [1,3]DIOXOLAN-4-YL)-2- OXO-1,2-DIHYDRO- PYRIMIDIN-4-YL]-AMIDE]	
< 0.0001		< 0.0001		< 0.0001		Nc1ccn([C@@H]2CO[C@H](COC(=O)CCCCCCCc3ccccc3)O2)c(=O)n1 [Compound 198, 8-PHENYL-OCTANOIC ACID 4-(4-AMINO-2-OXO-2H- PYRIMIDIN-1-YL)- [1,3]DIOXOLAN-2-YL METHYL ESTER]	
		< 0.0001	< 0.0001	< 0.0001		CC(=O)Oc1ccc(COC(=O)Nc2ccn([C@@H]3CO[C@H](CO)O3)c(=O)n2)cc1 [Compound 203, ACETIC ACID 4-[1-(2- HYDROXYMETHYL- [1,3]DIOXOLAN-4-YL)-2- OXO-1,2-DIHYDRO- PYRIMIDIN-4- YLCARBAMOYLOXYMETHYL]- PHENYL ESTER]	
	> 100	0.59	1.3	0.31		Nc1ccn([C@@H]2CO[C@H](COC(=O)c3ccccc3-c3ccccc3)O2)c(=O)n1 [Compound 209, BIPHENYL-2-CARBOXYLIC ACID 4-(4-AMINO-2-OXO- 2#H!-PYRIMIDIN-1-YL)- [1,3]DIOXOLAN-2-YL METHYL ESTER]	
	1.1	0.012	0.00027	≤ 0.0001		CC(C)(C)C(=O)Oc1ccc(COC(=O)Nc2ccn([C@@H]3CO[C@H](CO)O3)c(=O)n2)cc1 [Compound 213, 2,2-DIMETHYL-PROPIONIC ACID 4-[1-(2- HYDROXYMETHYL- [1,3]DIOXOLAN-4-YL)-2- OXO-1,2-DIHYDRO- PYRIMIDIN-4- YLCARBAMOYLOXYMETHYL]- PHENYL ESTER]	
	60	0.081	0.052	0.0091		CCCCC(CC)(CC)C(=O)OC[C@H]1OC[C@@H](n2ccc(N)nc2=O)O1 [Compound 218, 2,2-DIETHYL-HEXANOIC ACID 4-(4-AMINO-2-OXO- 2H-PYRIMIDIN-1-YL)- [1,3]DIOXOLAN-2-YL METHYL ESTER]	
